The subject of assay [1] is K562 (human leukemia cells). Put plainly: MTT cancer cell growth inhibition. It is filed as cell-based. Particulars: Homo sapiens, K562, 72 h, MTT, 72 hours incubation, K562 cells; read-out: GI50 K562. A digest of the protocol: (§1)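 Following overnight attachment of 1500 cells per well, each line was exposed to test drug (final 10^−5 to 10^−10 M) for 72 h in a humidified 37° C., 5% CO2 incubator. Four hours with MTT, DMSO dissolution of formazan, and a 570 nm reading yielded viability data used for GI50.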

Assay [2] concerns DU145 (human prostate cancer cells). The experiment in a line: MTT cancer cell growth inhibition. Format: cell-based. The conditions noted are these: Homo sapiens, DU-145, 72 h, MTT, 72 hours incubation, read-out: GI50 Du1. The method, boiled down:
as §1

For assay [3], the system named is KBM-5 (human chronic myelogenous leukemia). The experiment in a line: MTT cancer cell growth inhibition. It is filed as cell-based. The conditions noted are these: Homo sapiens, KBM5, 72 h, MTT, 72 hours incubation, KBM-5 cells; read-out: GI50 KBM-5. A digest of the protocol: as §1
Assay [4] deals with H1975 (non-small cell lung adenocarcinoma). Put plainly: MTT cancer cell growth inhibition. Particulars: Homo sapiens, NCI-H1975, 72 h, MTT, 72 hours incubation, H1975 cells; read-out: GI50 H1975. It is filed as cell-based. A digest of the protocol: as §1
The test system of assay [5] is MCF-7 (human breast cancer cells). Put plainly: MTT cancer cell growth inhibition. Format: cell-based. The conditions noted are these: Homo sapiens, MCF7, 72 h, 72 hours incubation, read-out: GI50 MCF. A digest of the protocol: as §1
Assay [6] relates to KBM5-T315I (human chronic myelogenous leukemia). Put plainly: MTT cancer cell growth inhibition. The conditions noted are these: Homo sapiens, 72 h, MTT, 72 hours incubation, KBM5-T315I cells; read-out: GI50 KBM5-T315I. Format: cell-based. A digest of the protocol:
as §1

Assay [7] relates to HCC827 (human non-small cell lung cancer cells). The experiment in a line: MTT cancer cell growth inhibition. It is filed as cell-based. The conditions noted are these: Homo sapiens, HCC827, 72 h, MTT, 72 hours incubation, HCC827 cells; read-out: GI50 HCC827. A digest of the protocol: as §1
Assay [8] has as its system A549 (human lung cancer cells). Put plainly: MTT cancer cell growth inhibition. Format: cell-based. Particulars: Homo sapiens, A549, 72 h, MTT, 72 hours incubation, read-out: GI50 A54. The method, boiled down:
as §1

In assay [9] the test system is MDA-MB-231 (breast cancer cells). The experiment in a line: MTT cancer cell growth inhibition. The conditions noted are these: Homo sapiens, MDA-MB-231, 72 h, read-out: GI50 MDA-MB-231, MTT, 72 hours incubation, MDA-MB-231 cells. It is filed as cell-based. A digest of the protocol:
as §1

In assay [10] the test system is U937 (human leukemia cells). Put plainly: MTT cancer cell growth inhibition. Format: cell-based. Particulars: Homo sapiens, U-937, 72 h, MTT, 72 hours incubation, read-out: GI50 U93. A digest of the protocol: as §1
The subject of assay [11] is PANC-1 (Pac-1, human pancreatic cancer cells). The experiment in a line: MTT cancer cell growth inhibition. Particulars: Homo sapiens, PANC-1, 72 h, MTT, 72 hours incubation, read-out: GI50 PAN. It is filed as cell-based. A digest of the protocol:
as §1

For assay [12], the system named is BGC-823 (human gastric cancer cells). The experiment in a line: MTT cancer cell growth inhibition. Format: cell-based. Particulars: Homo sapiens, BGC-823, 72 h, MTT, 72 hours incubation, read-out: GI50 BG. The method, boiled down: as §1
Assay [13] has as its system lncap (prostate cancer cells). Put plainly: MTT cancer cell growth inhibition. Format: cell-based. Particulars: Homo sapiens, LNCaP, 72 h, MTT, 72 hours incubation, read-out: GI50 lnca. A digest of the protocol:
as §1

Assay [14] relates to Huh-7 (human hepatoma cells). Put plainly: MTT cancer cell growth inhibition. Format: cell-based. The conditions noted are these: Homo sapiens, Huh-7, 72 h, MTT, 72 hours incubation, Huh-7 cells; read-out: GI50 Huh-7. A digest of the protocol:
as §1

Assay [15] concerns Bel-7402 (human hepatoma cells). The experiment in a line: MTT cancer cell growth inhibition. Format: cell-based. The conditions noted are these: Homo sapiens, Bel-7402, 72 h, MTT, 72 hours incubation, Bel-7402 cells; read-out: GI50 Bel-7402. A digest of the protocol:
as §1

For assay [16], the system named is HT1080 (human fibrosarcoma cells). Put plainly: MTT cancer cell growth inhibition. It is filed as cell-based. The conditions noted are these: Homo sapiens, HT-1080, 72 h, MTT, 72 hours incubation, read-out: GI50 HT1. A digest of the protocol: as §1
The subject of assay [17] is N-87 (human gastric cancer cells). The experiment in a line: MTT cancer cell growth inhibition. It is filed as cell-based. Particulars: Homo sapiens, 72 h, MTT, 72 hours incubation, N-87 cells; read-out: GI50 N-87. The method, boiled down:
as §1

The test system of assay [18] is MOLT-4 (human acute lymphoblastic leukemia cells). The experiment in a line: MTT cancer cell growth inhibition. Particulars: Homo sapiens, MOLT-4, 72 h, MTT, 72 hours incubation, read-out: GI50 Mol. Format: cell-based. A digest of the protocol: as §1
Assay [19] deals with Hela (human cervical cancer cells). Put plainly: MTT cancer cell growth inhibition. The conditions noted are these: Homo sapiens, HeLa, 72 h, MTT, 72 hours incubation, read-out: GI50 Hela. It is filed as cell-based. The method, boiled down: as §1
The test system of assay [20] is SGC-7901 (human gastric cancer cells). The experiment in a line: MTT cancer cell growth inhibition. The conditions noted are these: Homo sapiens, SGC-7901, 72 h, MTT, 72 hours incubation, SGC-7901 cells; read-out: GI50 SGC-7901. It is filed as cell-based. A digest of the protocol: as §1
Another assay deals with T1, HDAC7 (Homo sapiens, UniProt Q8WUI4).
T1 sequence (Q8WUI4 1-952): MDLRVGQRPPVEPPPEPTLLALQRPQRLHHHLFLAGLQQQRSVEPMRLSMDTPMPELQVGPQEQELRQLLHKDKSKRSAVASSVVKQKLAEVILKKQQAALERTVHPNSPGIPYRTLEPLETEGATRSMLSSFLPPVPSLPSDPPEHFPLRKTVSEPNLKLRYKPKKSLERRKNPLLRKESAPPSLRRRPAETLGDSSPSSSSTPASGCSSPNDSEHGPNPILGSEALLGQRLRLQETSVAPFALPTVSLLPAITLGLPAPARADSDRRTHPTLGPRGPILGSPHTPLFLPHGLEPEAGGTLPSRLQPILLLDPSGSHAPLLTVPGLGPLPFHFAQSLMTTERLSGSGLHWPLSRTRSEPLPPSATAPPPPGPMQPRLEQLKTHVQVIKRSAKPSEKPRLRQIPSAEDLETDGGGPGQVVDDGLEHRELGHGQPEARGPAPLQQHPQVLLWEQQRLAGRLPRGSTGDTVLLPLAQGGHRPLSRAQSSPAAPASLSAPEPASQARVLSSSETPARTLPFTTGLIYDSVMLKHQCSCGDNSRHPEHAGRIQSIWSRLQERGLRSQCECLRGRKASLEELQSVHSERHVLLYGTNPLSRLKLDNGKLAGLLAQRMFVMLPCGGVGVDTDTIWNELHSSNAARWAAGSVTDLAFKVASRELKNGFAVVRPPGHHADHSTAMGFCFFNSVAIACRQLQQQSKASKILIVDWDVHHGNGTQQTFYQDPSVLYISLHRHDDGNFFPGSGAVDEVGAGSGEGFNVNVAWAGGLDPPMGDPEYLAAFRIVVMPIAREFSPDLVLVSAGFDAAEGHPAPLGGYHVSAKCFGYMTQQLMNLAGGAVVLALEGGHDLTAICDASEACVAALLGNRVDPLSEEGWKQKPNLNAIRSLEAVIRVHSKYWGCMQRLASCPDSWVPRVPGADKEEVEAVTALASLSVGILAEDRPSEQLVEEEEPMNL
The experiment in a line: HDAC biochemical activity measurement (fluorescent substrate deacetylation).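 Further: fluorogenic deacetylation assay using acetyl-lysine substrate at 20 µM, enzyme and compound incubated 30 min at 37 °C, then developer added, fluorescence read at 360/460 nm.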 The conditions noted are these: HDAC7; 37° C. 30 minutes.

Like-named read-outs stand apart in the source and are kept apart here.

This is an account of results in patent US10065990B2, “Cyclic peptide compound, and preparation method, pharmaceutical composition and use thereof” (HANGZHOU GUANYU BIO-MEDICAL CO., LTD, priority 2013, dated 2018).

As a reminder, the GI50 is the concentration that inhibits growth by half.

For the compound `C/C=C1\NC(=O)c2ccc(SC)c(n2)CNC(=O)C[C@@H](/C=C/CCSC(C)=O)OC(=O)[C@H](Cc2ccccc2)NC1=O` [Compound 188], the GI50 in assay [1] was 0.036 µM; in assay [2] (DU145 cells), 0.03 µM; in assay [3] it was 0.018 µM; in assay [4] it was 0.053 µM; in assay [5] (MCF-7 cells) it was 0.03 µM; in assay [6], 0.036 µM. Further, the GI50 was 0.029 µM in assay [7]; 0.02 µM in [8] (A549 cells); 0.023 µM in assay [9]; 0.04 µM in assay [10] (U937 cells); 0.05 µM in [11] (PANC-1 cells); 0.03 µM in assay [12] (BGC-823 cells). For the same compound, the GI50 in [13] (lncap cells) is 0.06 µM; in assay [14], 0.079 µM; in assay [15], 0.042 µM; in assay [16] (HT1080 cells), 0.08 µM; in [17], 0.028 µM; in assay [18] (MOLT-4 cells), 0.03 µM. For the same compound, the GI50 in assay [19] (Hela cells) came to 0.05 µM; in assay [20] it was 0.071 µM. The “IC50 HDAC7” value against HDAC7 is “no activity”.
On to `C/C=C1\NC(=O)c2cc(F)cc(n2)CNC(=O)C[C@@H](/C=C/CCS)OC(=O)[C@H](C(C)C)NC1=O` [Compound 107], for which the GI50 in [1] came out at 0.038 µM; in [2], 0.03 µM; in [3], 0.072 µM; in [4], 0.057 µM; in [5], 0.03 µM; in assay [6] it was 0.041 µM. For the same compound, the GI50 in assay [7] was 0.013 µM; in assay [8] it was 0.04 µM; in assay [9], 0.027 µM; in assay [10] it was 0.03 µM; in [11], 0.08 µM; in assay [12] it was 0.03 µM. In addition, the GI50 in [13] stood at 0.03 µM; in assay [14], 0.024 µM; in assay [15] it was 0.053 µM; in assay [16], 0.08 µM; in assay [17], 0.035 µM; in assay [18], 0.03 µM. Further, the GI50 in [19] is 0.06 µM; in [20], 0.027 µM. Further, the “IC50 HDAC7” value on HDAC7 is given as “no activity”.
For the compound `C/C=C1\NC(=O)c2nc(ccc2SC)CNC(=O)C[C@@H](/C=C/CCS)OC(=O)[C@H](CC)NC1=O` [Compound 229], the GI50 turned out to be 0.086 µM in assay [1]; 0.05 µM in assay [2] (DU145 cells); 0.071 µM in [3]; 0.038 µM in assay [4]; 0.07 µM in assay [5] (MCF-7 cells); 0.053 µM in [6]. For the same compound, the GI50 was 0.077 µM in assay [7]; 0.06 µM in [8] (A549 cells); 0.023 µM in assay [9]; 0.02 µM in assay [10] (U937 cells); 0.05 µM in assay [11] (PANC-1 cells); 0.74 µM in [12] (BGC-823 cells). Further, the GI50 amounted to 0.03 µM in assay [13] (lncap cells); 0.028 µM in assay [14]; 0.037 µM in assay [15]; 0.01 µM in [16] (HT1080 cells); 0.077 µM in [17]; 0.03 µM in [18] (MOLT-4 cells). The GI50 is 0.03 µM in [19] (Hela cells) and 0.091 µM in assay [20]. Further, the “IC50 HDAC7” value against HDAC7 was “no activity”.
As for `C/C=C1\NC(=O)c2cccc(n2)CNC(=O)C[C@@H](/C=C/CCS)OC(=O)[C@H](CC)NC1=O` [Example 28], the GI50 in [1] stood at 0.035 µM; in assay [2], 0.43 µM; in assay [3], 0.073 µM; in assay [4], 0.035 µM; in assay [5], 0.93 µM; in [6], 0.051 µM. The GI50 came out at 0.037 µM in [7]; 0.42 µM in [8]; 0.086 µM in assay [9]; 2.11 µM in assay [10]; 0.02 µM in [11]; 1.1 µM in assay [12]. Moreover, the GI50 in assay [13] is 0.39 µM; in assay [14] it was 0.073 µM; in [15], 0.092 µM; in assay [16] it was 0.04 µM; in assay [17], 0.042 µM; in assay [18], 0.08 µM. Moreover, the GI50 in [19] is 0.81 µM; in assay [20], 0.034 µM. The “IC50 HDAC7” value on HDAC7 is reported as “no activity”.
With `C/C=C1\NC(=O)c2cccc(n2)CNC(=O)C[C@@H](/C=C/CCS)OC(=O)[C@H](Cc2ccc(O)cc2)NC1=O` [Compound 127], the GI50 in [1] turned out to be 0.028 µM; in [2] it was 0.07 µM; in assay [3] it was 0.053 µM; in assay [4] it was 0.036 µM; in assay [5], 0.07 µM; in [6], 0.028 µM. Also, the GI50 in assay [7] amounted to 0.038 µM; in [8], 0.05 µM; in assay [9], 0.037 µM; in [10], 0.05 µM; in assay [11], 0.05 µM; in assay [12], 0.05 µM. Also, the GI50 turned out to be 0.08 µM in assay [13]; 0.071 µM in assay [14]; 0.037 µM in [15]; 0.08 µM in assay [16]; 0.046 µM in [17]; 0.08 µM in [18]. The GI50 in assay [19] worked out at 0.08 µM; in assay [20], 0.036 µM. Besides, the “IC50 HDAC7” value at HDAC7 was “no activity”.
